Results from patent US20260355196A1, “INHIBITORS AND DEGRADERS OF PIP4K PROTEIN” (Larkspur Biosciences, Inc., priority 2023, published 2026).

target: T1, PIP4K2C (Homo sapiens, UniProt Q8TBX8); assay: HiBiT PIP4K2C degradation assay in MOLT-4 cells (endogenous PIP4K2C C-terminally tagged with HiBiT); type: cell-based; parameters: untagged in primary human PBMCs and monocyte-derived dendritic cells; conditions: 6 hours of incubation time, rather than 24 hours; MOLT-4, top concentration 10 micromolar; read-out: HiBIT-degradation MOLT4 PIP4k2C DC50 (6 hours, marked *)
T1 sequence (Q8TBX8 1-421): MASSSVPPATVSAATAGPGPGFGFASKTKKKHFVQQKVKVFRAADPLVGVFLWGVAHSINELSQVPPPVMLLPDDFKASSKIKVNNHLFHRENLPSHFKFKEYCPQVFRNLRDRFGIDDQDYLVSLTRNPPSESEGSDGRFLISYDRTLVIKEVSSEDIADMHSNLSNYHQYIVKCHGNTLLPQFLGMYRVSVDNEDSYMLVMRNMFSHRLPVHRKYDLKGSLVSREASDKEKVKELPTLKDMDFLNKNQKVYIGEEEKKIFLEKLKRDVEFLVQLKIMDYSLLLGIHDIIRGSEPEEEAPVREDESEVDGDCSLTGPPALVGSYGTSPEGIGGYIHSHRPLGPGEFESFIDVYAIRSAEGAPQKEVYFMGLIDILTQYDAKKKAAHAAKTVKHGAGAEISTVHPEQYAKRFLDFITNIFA
Procedure, shortened: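 Luminescent HiBiT lytic readout of residual PIP4K2C-HiBiT (CRISPR knock-in, MOLT-4, phenol red-free RPMI-1640 + 10% FBS). Cells exposed 6 or 24 h at 37 C to compound, top 10 micromolar, 3-fold, 10 points, duplicate. Hill fit (Levenberg-Marquardt) gives DC50.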

DC50, < 0.5 µM:
O=C1CCC(Nc2ccc(C3CCN(CC4CCN(C(=O)[C@H]5CC[C@H](Nc6ncc(F)c(-c7cccc(-c8ccccc8)c7)n6)CC5)CC4)CC3)c(F)c2)C(=O)N1 (stereo partly drawn) [Compound 466, 3-((4-(1-((1-(trans-4-((4-([1,1′-biphenyl]-3-yl)-5-fluoropyrimidin-2-yl)amino)cyclohexane-1-carbonyl)piperidin-4-yl)methyl)piperidin-4-yl)-3-fluorophenyl)amino)piperidine-2,6-dione]
Cn1nc(C2CCC(=O)NC2=O)c2ccc(C3CCN(CC4CCN(C(=O)O[C@H]5CC[C@H](Nc6ncc(F)c(-c7cccc(-n8ccccc8=O)c7)n6)CC5)CC4)CC3)cc21 (stereo partly drawn) [Compound 467, trans-4-((5-fluoro-4-(3-(2-oxopyridin-1 (2H)-yl)phenyl)pyrimidin-2-yl)amino)cyclohexyl 4-((4-(3-(2,6-dioxopiperidin-3-yl)-1-methyl-1H-indazol-6-yl)piperidin-1-yl)methyl)piperidine-1-carboxylate]
O=C1CCC(Nc2ccc(C3CCN(CC4CCN(C(=O)[C@H]5CC[C@H](Nc6ncc(F)c(-c7cccc(C(=O)N8CC[C@H](O)C8)c7)n6)CC5)CC4)CC3)c(F)c2)C(=O)N1 (stereo partly drawn) [Compound 468, trans-3-((3-fluoro-4-(1-((1-(4-((5-fluoro-4-(3-((S)-3-hydroxypyrrolidine-1-carbonyl)phenyl)pyrimidin-2-yl)amino)cyclohexane-1-carbonyl)piperidin-4-yl)methyl)piperidin-4-yl)phenyl)amino)piperidine-2,6-dione]
O=C1CCC(Nc2ccc(C3CCN(CCC4CCN(C(=O)O[C@H]5CC[C@H](Nc6ncc(F)c(-c7cccc(-c8ccccc8)c7)n6)CC5)CC4)CC3)c(F)c2)C(=O)N1 (stereo partly drawn) [Compound 469, trans-4-((4-([1,1′-biphenyl]-3-yl)-5-fluoropyrimidin-2-yl)amino)cyclohexyl 4-(2-(4-(4-((2,6-dioxopiperidin-3-yl)amino)-2-fluorophenyl)piperidin-1-yl)ethyl)piperidine-1-carboxylate]
Cc1ccn(-c2cccc(-c3nc(N[C@H]4CC[C@H](C(=O)N5CCC(O)(CN6CCN(c7ccc(NC8CCC(=O)NC8=O)cc7F)CC6)CC5)CC4)ncc3F)c2)c(=O)c1 (stereo partly drawn) [Compound 470, trans-3-((3-fluoro-4-(4-((1-(4-((5-fluoro-4-(3-(4-methyl-2-oxopyridin-1 (2H)-yl)phenyl)pyrimidin-2-yl)amino)cyclohexane-1-carbonyl)-4-hydroxypiperidin-4-yl)methyl)piperazin-1-yl)phenyl)amino)piperidine-2,6-dione]
Cc1ccn(-c2cccc(-c3nc(N[C@H]4CC[C@H](C(=O)N5CCC(CN6CCN(c7ccc(NC8CCC(=O)NC8=O)cc7F)CC6)CC5)CC4)ncc3F)c2)c(=O)c1 (stereo partly drawn) [Compound 471, trans-3-((3-fluoro-4-(4-((1-(4-((5-fluoro-4-(3-(4-methyl-2-oxopyridin-1 (2H)-yl)phenyl)pyrimidin-2-yl)amino)cyclohexane-1-carbonyl)piperidin-4-yl)methyl)piperazin-1-yl)phenyl)amino)piperidine-2,6-dione]
Cc1ccn(-c2cccc(-c3nc(N[C@H]4CC[C@H](C(=O)N5CCC(O)(CN6CCC(c7ccc(NC8CCC(=O)NC8=O)cc7F)CC6)CC5)CC4)ncc3F)c2)c(=O)c1 (stereo partly drawn) [Compound 472, trans-3-[3-fluoro-4-[1-[[1-[4-[[5-fluoro-4-[3-(4-methyl-2-oxo-1-pyridyl)phenyl]pyrimidin-2-yl]amino]cyclohexanecarbonyl]-4-hydroxy-4-piperidyl]methyl]-4-piperidyl]anilino]piperidine-2,6-dione]
Cc1ccn(-c2cccc(-c3nc(N[C@H]4CC[C@H](C(=O)N5CCC(CN6CCC(c7ccc(NC8CCC(=O)NC8=O)cc7F)CC6)CC5)CC4)ncc3F)c2)c(=O)c1 (stereo partly drawn) [Compound 473, trans-3-((3-fluoro-4-(1-((1-(4-((5-fluoro-4-(3-(4-methyl-2-oxopyridin-1 (2H)-yl)phenyl)pyrimidin-2-yl)amino)cyclohexane-1-carbonyl)piperidin-4-yl)methyl)piperidin-4-yl)phenyl)amino)piperidine-2,6-dione]
O=C1CCC(Nc2ccc(C3CCN(C4CCN(C(=O)O[C@H]5CC[C@H](Nc6ncc(F)c(-c7cccc(-n8ccccc8=O)c7)n6)CC5)CC4)CC3)c(F)c2)C(=O)N1 (stereo partly drawn) [Compound 474, trans-4-((5-fluoro-4-(3-(2-oxopyridin-1 (2H)-yl)phenyl)pyrimidin-2-yl)amino)cyclohexyl 4-(4-((2,6-dioxopiperidin-3-yl)amino)-2-fluorophenyl)-[1,4′-bipiperidine]-1′-carboxylate]
O=C1CCC(Nc2ccc(N3CCN(C4CCN(C(=O)O[C@H]5CC[C@H](Nc6ncc(F)c(-c7cccc(-n8ccccc8=O)c7)n6)CC5)CC4)CC3)c(F)c2)C(=O)N1 (stereo partly drawn) [Compound 475, trans-4-((5-fluoro-4-(3-(2-oxopyridin-1 (2H)-yl)phenyl)pyrimidin-2-yl)amino)cyclohexyl 4-(4-(4-((2,6-dioxopiperidin-3-yl)amino)-2-fluorophenyl)piperazin-1-yl)piperidine-1-carboxylate]
O=C1CCC(Nc2ccc(N3CCC(N4CCC(NC(=O)[C@H]5CC[C@H](Nc6ncc(F)c(-c7cccc(N8CCOCC8=O)c7)n6)CC5)CC4)C(F)C3)c(F)c2)C(=O)N1 (stereo partly drawn) [Compound 476, trans-N-(1′-(4-((2,6-dioxopiperidin-3-yl)amino)-2-fluorophenyl)-3′-fluoro-[1,4′-bipiperidin]-4-yl)-4-((5-fluoro-4-(3-(3-oxomorpholino)phenyl)pyrimidin-2-yl)amino)cyclohexane-1-carboxamide]
O=C1CCC(Nc2ccc(C3CCN(CC4CCN(C(=O)[C@H]5CC[C@H](Nc6ncc(F)c(-c7cccc(N8CCCCC8)c7)n6)CC5)CC4)CC3)c(F)c2)C(=O)N1 (stereo partly drawn) [Compound 477, trans-3-((3-fluoro-4-(1-((1-(trans-4-((5-fluoro-4-(3-(piperidin-1-yl)phenyl)pyrimidin-2-yl)amino)cyclohexane-1-carbonyl)piperidin-4-yl)methyl)piperidin-4-yl)phenyl)amino)piperidine-2,6-dione]
CN(C(=O)[C@H]1CC[C@H](N2CCN(c3ccc(NC4CCC(=O)NC4=O)cc3F)CC2)CC1)[C@H]1CC[C@H](Nc2ncc(F)c(-c3cccc(C4CC4)c3)n2)CC1 (stereo partly drawn) [Compound 478, trans-N-((trans)-4-((4-(3-cyclopropylphenyl)-5-fluoropyrimidin-2-yl)amino)cyclohexyl)-4-(4-(4-((2,6-dioxopiperidin-3-yl)amino)-2-fluorophenyl)piperazin-1-yl)-N-methylcyclohexane-1-carboxamide]
O=C1CCC(Nc2ccc(C3CCN([C@H]4CC[C@H](NC(=O)[C@H]5CC[C@H](Nc6ncc(F)c(-c7cccc(C8(O)CCC8)n7)n6)CC5)CC4)CC3)c(F)c2)C(=O)N1 (stereo partly drawn) [Compound 479, trans-N-((trans)-4-(4-(4-((2,6-dioxopiperidin-3-yl)amino)-2-fluorophenyl)piperidin-1-yl)cyclohexyl)-4-((5-fluoro-4-(6-(1-hydroxycyclobutyl)pyridin-2-yl)pyrimidin-2-yl)amino)cyclohexane-1-carboxamide]
